Source: publication PMC7836687 (International Journal of Biological Macromolecules, 2020)

What was measured:
SARS-CoV-2 = type: cell-based, SARS-CoV-2 (βCoV/KOR/KCDC03/2020); conditions: Severe acute respiratory syndrome coronavirus 2, Vero; for IC50: read-out: IC50 against SARS-CoV-2 infection
Vero cells = conditions: at concentration 12.50 μM
[1] = cited from earlier work

Compound	IC50 (SARS-CoV-2) [µM]	also measured
CCCCCc1cc(O)c2c(c1)OC(C)(C)[C@@H]1CCC(C)=C[C@@H]21 [Δ^9-THC, Δ^9-tetrahydrocannabinol]	10.2	–
C=C(C)[C@@H]1CCC(C)=C[C@H]1c1c(O)cc(CCCCC)cc1O [CBD, Cannabidiol]	7.91	Vero cell survival ratio (Vero cells): 97.46%; safe dose ([1]; humans, concluded from literature dosing): up to 60 mg per day; safety of a single oral dose ([1]; single oral dose 100 mg, healthy volunteers): safe and tolerable; inhibition at 12.5 µM (SARS-CoV-2; read-out: inhibition of SARS-CoV-2 virus): 99.2%
CCN(CC)CCCC(C)Nc1ccnc2cc(Cl)ccc12 (centres unmarked) [chloroquine, reference compound]	9.78	–
C=C(C)[C@@H]1CCC(C)=C[C@H]1c1c(O)cc(CCCCC)c(C(=O)O)c1O [CBDA, Cannabidiolic acid]	37.6	–
CCCCCc1cc(O)c2c(c1)OC(C)(C)c1ccc(C)cc1-2 [CBN, Cannabinol]	11.1	–
CCC(CC)COC(=O)[C@H](C)N[P@](=O)(OC[C@H]1O[C@@](C#N)(c2ccc3c(N)ncnn23)[C@H](O)[C@@H]1O)Oc1ccccc1 [remdesivir, reference compound]	8.17	–
Cc1cccc(C)c1OCC(=O)N[C@@H](Cc1ccccc1)[C@@H](O)C[C@H](Cc1ccccc1)NC(=O)[C@H](C(C)C)N1CCCNC1=O [lopinavir, reference compound]	13.2	–
